Consider 8 compounds from PubChem BioAssay (NCI).

Among the test systems are OVCAR-3 ovarian; HOP-62 NSCLC; SF-539 CNS; SK-MEL-28 melanoma; NCI-H23 lung; NCI-H226 lung; M14 melanoma; MCF7 breast; SR leukemia; SK-OV-3 ovarian; HS 578T breast; UACC-257 melanoma; DU-145 prostate; HOP-92 NSCLC; RPMI-8226 leukemia; NCI/ADR-RES ovarian; SK-MEL-2 melanoma; HCT-15 colon.
What all share (assay): growth of human tumour cells (NCI), 48 h

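Growth conditions: 96-well plates. Treatment: test compound, 48 hours, 5 concentrations. Analysis: linear interpolation between bracketing concentrations; unreached endpoints set to highest concentration. TGI is the concentration that stops growth completely.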 A value given as a limit tells only on which side of the number the result lay.

In the case of `C[C@]12CCC(=O)C=C1CC[C@@H]1C2CC[C@]2(C)c3nn(-c4ccc(F)cc4)nc3CC12` (some centres undefined), the TGI with OVCAR-3 ovarian, with HOP-62 NSCLC, in the assay on SF-539 CNS, in the assay on SK-MEL-28 melanoma, in the assay with NCI-H23 lung and in the assay with NCI-H226 lung was greater than 100 µM each time. Moreover, the TGI in the assay on M14 melanoma, with MCF7 breast, in the assay on SR leukemia, in the assay with SK-OV-3 ovarian, in the assay on HS 578T breast and in the assay with UACC-257 melanoma was greater than 100 µM in each case. In addition, the TGI in the assay with DU-145 prostate and with HOP-92 NSCLC was greater than 100 µM in each case.

Take `O=C(O)c1nc(-c2ccccn2)c(-c2ccccn2)nc1C(=O)O`: the TGI in the assay on OVCAR-3 ovarian was 12.4 µM; in the assay on HOP-62 NSCLC it was 15.3 µM; with SF-539 CNS, 20.6 µM; with SK-MEL-28 melanoma it was 11.1 µM; with NCI-H23 lung it was 23.6 µM; with NCI-H226 lung it was 4.7 µM. In addition, the TGI in the assay with RPMI-8226 leukemia was greater than 100 µM; with M14 melanoma, 3.59 µM; with NCI/ADR-RES ovarian, greater than 23.1 µM; in the assay on SK-MEL-2 melanoma, 29.9 µM; in the assay on SR leukemia, 9.91 µM; with HCT-15 colon, greater than 42.5 µM. The TGI in the assay on SK-OV-3 ovarian was 16.3 µM; in the assay on HS 578T breast, greater than 72.6 µM; with UACC-257 melanoma, 16.4 µM; in the assay with DU-145 prostate, 12.1 µM; with HOP-92 NSCLC it was 26.9 µM.

For `CC(=O)c1csc2c1C(=O)c1scc(C(C)=O)c1C2=O`, the TGI worked out at 0.646 µM in the assay with OVCAR-3 ovarian; 3.43 µM in the assay on HOP-62 NSCLC; 3.28 µM with SF-539 CNS; 3.64 µM in the assay on SK-MEL-28 melanoma; 2.92 µM in the assay with NCI-H23 lung; 4.14 µM in the assay on NCI-H226 lung. For the same compound, the TGI was determined as 3.14 µM in the assay on RPMI-8226 leukemia; 3.1 µM in the assay on M14 melanoma; 3.31 µM in the assay with MCF7 breast; 3.9 µM in the assay with NCI/ADR-RES ovarian; 3.73 µM in the assay with SK-MEL-2 melanoma; 3.2 µM in the assay on HCT-15 colon. Further, the TGI is 4.64 µM in the assay on SK-OV-3 ovarian; 6.48 µM in the assay on HS 578T breast; 2.41 µM in the assay on UACC-257 melanoma; 3.34 µM in the assay with DU-145 prostate; 3.92 µM with HOP-92 NSCLC.

Turning to `COc1cc(/C=C2\C[C@H]3[C@@H]4CC=C5C[C@@H](O)CC[C@]5(C)[C@H]4CC[C@]3(C)C2=O)cc(OC)c1OC`, the TGI in the assay on OVCAR-3 ovarian, in the assay on HOP-62 NSCLC, in the assay with SF-539 CNS, in the assay with SK-MEL-28 melanoma, in the assay on NCI-H23 lung and in the assay with NCI-H226 lung was greater than 100 µM in each case. Moreover, the TGI in the assay with RPMI-8226 leukemia is 45.4 µM; in the assay on M14 melanoma, 81.8 µM; in the assay with MCF7 breast, greater than 100 µM; in the assay on NCI/ADR-RES ovarian it was greater than 100 µM; in the assay on SK-MEL-2 melanoma it was 65.4 µM; in the assay with HCT-15 colon, greater than 100 µM. The TGI with SK-OV-3 ovarian, with HS 578T breast, in the assay on UACC-257 melanoma, in the assay with DU-145 prostate and with HOP-92 NSCLC was greater than 100 µM each time.

Turning to `CC(C)CC1[C@@H](OCc2ccccc2)COS(=O)N1Cc1ccccc1` (some centres undefined), the TGI in the assay with OVCAR-3 ovarian is greater than 100 µM; in the assay on HOP-62 NSCLC, greater than 100 µM; in the assay on SK-MEL-28 melanoma, greater than 100 µM; in the assay with NCI-H23 lung, greater than 100 µM; in the assay on NCI-H226 lung it was greater than 100 µM; with RPMI-8226 leukemia it was 51 µM. For the same compound, the TGI with M14 melanoma was greater than 100 µM; in the assay with MCF7 breast, greater than 100 µM; in the assay with NCI/ADR-RES ovarian, greater than 100 µM; with SK-MEL-2 melanoma, greater than 100 µM; in the assay on SR leukemia, 73.1 µM; in the assay on HCT-15 colon, greater than 100 µM. Also, the TGI with SK-OV-3 ovarian is greater than 100 µM; in the assay on HS 578T breast it was 80 µM; in the assay on UACC-257 melanoma, greater than 100 µM; with DU-145 prostate, greater than 100 µM.

With `c1cc(-c2ncc(-c3ccc4c(c3)CCCO4)o2)ccn1`, the TGI in the assay with OVCAR-3 ovarian is 29.9 µM; with HOP-62 NSCLC, greater than 100 µM; in the assay with SF-539 CNS, 45.2 µM; in the assay on SK-MEL-28 melanoma, greater than 100 µM; in the assay on NCI-H23 lung, 52.2 µM; with NCI-H226 lung, greater than 100 µM. Moreover, the TGI in the assay on RPMI-8226 leukemia was found to be 30.4 µM; in the assay with M14 melanoma it was 94.5 µM; in the assay with MCF7 breast, 80.9 µM; in the assay on NCI/ADR-RES ovarian, 23.1 µM; with SK-MEL-2 melanoma, 37.6 µM; with HCT-15 colon it was 69.7 µM. In addition, the TGI was 93.5 µM in the assay on SK-OV-3 ovarian; greater than 100 µM with HS 578T breast; 43.5 µM in the assay on UACC-257 melanoma; greater than 100 µM in the assay on DU-145 prostate; 92.5 µM in the assay on HOP-92 NSCLC.

In the case of `CN(C)C1=Nc2ccccc2C(=S)N2CSCC12` (centres undefined), the TGI in the assay with OVCAR-3 ovarian, in the assay with HOP-62 NSCLC, in the assay on SK-MEL-28 melanoma, with NCI-H226 lung, in the assay with RPMI-8226 leukemia and with M14 melanoma was greater than 100 µM each time. The TGI in the assay on MCF7 breast was greater than 100 µM; with NCI/ADR-RES ovarian, greater than 100 µM; in the assay on SK-MEL-2 melanoma, greater than 100 µM; with SR leukemia it was 48 µM; in the assay with HCT-15 colon, greater than 100 µM; in the assay on SK-OV-3 ovarian, greater than 100 µM. Further, the TGI in the assay on HS 578T breast, in the assay with UACC-257 melanoma and in the assay with DU-145 prostate was greater than 100 µM in each case.

As to `CN1CCOC1(C)CO` (centres undefined), the TGI with OVCAR-3 ovarian, in the assay on HOP-62 NSCLC, in the assay on SF-539 CNS, in the assay with NCI-H23 lung, with NCI-H226 lung and in the assay on RPMI-8226 leukemia was greater than 100 µM each time. Besides, the TGI with M14 melanoma, with MCF7 breast, in the assay on NCI/ADR-RES ovarian, in the assay on SK-MEL-2 melanoma, in the assay on SR leukemia and in the assay with HCT-15 colon was greater than 100 µM throughout. The TGI in the assay with SK-OV-3 ovarian, in the assay with HS 578T breast, with UACC-257 melanoma and in the assay on HOP-92 NSCLC was greater than 100 µM in each case.
